From patent publication US12384770B2, “Heterocyclic compound” (Takeda Pharmaceutical Company Limited, priority 2019, dated 2025)
Entries after “also recorded” stand apart in the source; their conditions may differ.

Key:
HDAC6 enzyme = molecular target: T1, HDAC6 enzyme (Homo sapiens, UniProt Q9UBN7); assay: HDAC6 enzyme inhibitory assay (HDAC-Glo I/II Assay kit); assay type: biochemical; details: wells without enzyme = 100% inhibition; for inhibition at 10 µM: read-out: HDAC6 inhibitory rate (%) (10 μM)
T1 construct: HDAC6 enzyme prepared by transducing full length HDAC6 gene into Sf-9 insect cells; GST; purchased SignalChem; host or cells: Sf-9 insect cells
T1 sequence (Q9UBN7 1-1215): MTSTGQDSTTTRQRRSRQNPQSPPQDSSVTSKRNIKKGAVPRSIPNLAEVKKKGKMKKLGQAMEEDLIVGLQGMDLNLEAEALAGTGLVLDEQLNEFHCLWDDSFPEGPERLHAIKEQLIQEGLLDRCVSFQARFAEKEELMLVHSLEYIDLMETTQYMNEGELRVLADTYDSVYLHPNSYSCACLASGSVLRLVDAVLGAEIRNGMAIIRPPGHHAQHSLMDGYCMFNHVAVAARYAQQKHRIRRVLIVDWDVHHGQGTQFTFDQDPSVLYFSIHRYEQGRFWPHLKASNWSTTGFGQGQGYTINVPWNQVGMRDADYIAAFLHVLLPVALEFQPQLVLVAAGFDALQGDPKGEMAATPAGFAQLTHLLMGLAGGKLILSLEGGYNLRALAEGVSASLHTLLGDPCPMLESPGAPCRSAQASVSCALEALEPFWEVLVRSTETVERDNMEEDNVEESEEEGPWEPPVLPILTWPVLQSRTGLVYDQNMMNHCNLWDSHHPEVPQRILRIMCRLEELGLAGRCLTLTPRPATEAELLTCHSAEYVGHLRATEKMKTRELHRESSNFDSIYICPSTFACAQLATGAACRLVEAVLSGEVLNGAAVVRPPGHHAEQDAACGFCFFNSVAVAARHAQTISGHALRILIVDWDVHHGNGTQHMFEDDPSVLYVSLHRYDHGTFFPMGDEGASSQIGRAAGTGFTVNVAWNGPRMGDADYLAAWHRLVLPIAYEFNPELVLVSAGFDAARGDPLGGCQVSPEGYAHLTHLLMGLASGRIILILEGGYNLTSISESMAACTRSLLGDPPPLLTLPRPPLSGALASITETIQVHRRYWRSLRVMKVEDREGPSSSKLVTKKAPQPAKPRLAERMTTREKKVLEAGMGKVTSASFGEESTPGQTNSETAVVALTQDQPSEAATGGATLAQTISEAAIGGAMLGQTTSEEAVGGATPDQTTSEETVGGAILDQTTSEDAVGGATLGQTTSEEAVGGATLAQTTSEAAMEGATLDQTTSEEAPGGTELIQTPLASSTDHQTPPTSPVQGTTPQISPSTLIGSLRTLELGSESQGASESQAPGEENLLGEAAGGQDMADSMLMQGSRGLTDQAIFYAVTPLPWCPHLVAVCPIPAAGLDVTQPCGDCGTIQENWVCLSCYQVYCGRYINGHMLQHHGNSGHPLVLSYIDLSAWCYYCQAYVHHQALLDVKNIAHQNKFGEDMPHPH
Procedure, shortened: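 Full-length GST-purified HDAC6 from Sf-9 cells preincubated with compound 60 min at room temperature in Tris-HCl pH 7.5 buffer with MgCl2, KCl, NaCl, glutathione, Tween-20. Substrate-developer reaction 20 min, luminescence read; no-enzyme wells set as 100% inhibition.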

[1] = test system: acetylated tubulin in mouse brain; assay: Increase in acetylated tubulin in brain (hippocampus, ELISA); assay type: in vivo; details: male C57BL/6J mouse, oral, 4 h after administration
From the text: A drug was suspended in 0.5% methyl cellulose to prepare a suspension for administration, having a concentration shown in Table 3. The suspension was orally administered into 8 to 10-week old male C57BL/6J mouse, and after the passage of the time shown in Table 3, the brain was taken out, and hippocampus was obtained. The hippocampus was homogenized under RIPA extract (FUJIFILM Wako Pure Chemical Corporation) to which protease inhibitor (Thermo Fisher Scientific) and phosphatase inhibitor (Thermo Fisher Scientific) were added, and centrifuged in 15,000 g for 15 min to prepare a protein extract. The acetylated tubulin and total tubulin in the extract were detected by the following ELISA method. Tubulin antibody (Sigma) was immobilized on 96-well plate (Microlite2+, Thermo Fisher Scientific), and the plate was stored at 4° C. Next day, the plate was washed four times with PBS-T, and blocking buffer (1% BSA/PBS-T) was added thereto, and the reaction was carried out at 37° C. for 2 hr. The plate was washed four times with PBS-T, and the above-mentioned protein extract was added thereto to capture the tubulin on the antibody. The plate was stored at 37° C. for 2 hr, and washed four times with PBS-T. Anti-acetylated tubulin antibody or total tubulin antibody (Cell Signaling Technology), each diluted with blocking buffer, was added thereto, and the reaction was carried out at 37° C. for 1 hr. […] The plate was washed, HRP substrate was added thereto, and the luminescence was measured using a plate reader. The acetylated tubulin and total tubulin were quantified from logistics curve based on dilution series using the mouse hippocampus tissue extract, and the amount of the acetylated tubulin relative to the total tubulin was calculated, and evaluated as an relative tubulin acetylation level. […] After F test for vehicle group and drug group, the significant difference between the two groups was analyzed by Student t-test or Welch test (indicated as *p<0.05, **p<0.01, n.s.: not significant). […]

[2] = test system: P301S mutant human tau (4R1N) Tg mouse; assay: Cognitive improvement action in neurodegenerative disease model mouse (novel object recognition test); assay type: in vivo; details: once a day for three months
Procedure: A drug was suspended in 0.5% methyl cellulose to prepare a suspension for administration. The suspension was repeatedly administered into six month-old male P301S mutant human tau (4R1N) Tg mouse once a day for three months, and novel object recognition test was performed by the following method. The test is comprised of memory acquisition trial of object on the first day, and memory retention trial of familiar object and novel object on the second day. Drug was administered into the mouse 1 hr before the trials on both days. For acquisition trial, The mouse was put in a test box (30 cm×30 cm×25 cm) in which two identical objects were placed, and contact frequency and contact duration with the objects for 5 min were measured under 50 lux. Herein, the contact means a behavior getting a sniff of an object (Sniffing). Next day, one of the objects was replaced with new object, and contact frequency and contact duration with each object for 5 min were measured. Novelty discrimination index (NDI) as an index of cognitive function was calculated by novel object […]/(novel object contact duration+familiar object contact duration) %. […] After F test for vehicle administration wild-type group and vehicle administration Tg group, the significant difference between the two groups was analyzed by Student t-test or Welch test (indicated as **p<0.01). […]

tauopathy mouse model = details: cited from earlier work

## O=C1c2cc(-c3nnc(C(F)F)o3)ccc2CN1[C@H](c1ccccn1)[C@@H](O)c1ccccn1 [Example 1, 6-[5-(difluoromethyl)-1,3,4-oxadiazol-2-yl]-2-[(1R,2R)-2-hydroxy-1,2-di(pyridin-2-yl)ethyl]-2,3-dihydro-1H-isoindol-1-one]
HDAC6 enzyme
  inhibition at 10 µM: 101%
[1]
  relative tubulin acetylation level (acetylated tubulin relative to total tubulin): increase in significant tubulin acetylation level; also recorded: increase in acetylated tubulin
[2]
  cognitive improvement action (novelty discrimination, relative exploration time): cognitive improvement action

## O=C1c2cc(-c3nnc(C(F)F)o3)ccc2CN1[C@H](c1ccccn1)[C@@H](O)c1ccc(F)cn1 [Example 3, 6-[5-(difluoromethyl)-1,3,4-oxadiazol-2-yl]-2-[(1R,2R)-2-(5-fluoropyridin-2-yl)-2-hydroxy-1-(pyridin-2-yl)ethyl]-2,3-dihydro-1H-isoindol-1-one]
HDAC6 enzyme
  inhibition at 10 µM: 101%
[1]
  relative tubulin acetylation level (acetylated tubulin relative to total tubulin): increase in significant tubulin acetylation level; also recorded: increase in acetylated tubulin
[2]
  cognitive improvement action (novelty discrimination, relative exploration time): cognitive improvement action

## O=C1c2cc(-c3nnc(C(F)F)o3)ccc2CN1[C@H](c1ccc(F)cn1)[C@@H](O)c1ccc(F)cn1 [Example 5, 2-[(1R,2R)-1,2-bis(5-fluoropyridin-2-yl)-2-hydroxyethyl]-6-[5-(difluoromethyl)-1,3,4-oxadiazol-2-yl]-2,3-dihydro-1H-isoindol-1-one]
HDAC6 enzyme; 10 µM
  HDAC6 inhibitory rate (%) (10 μM): 99%
[1]
  relative tubulin acetylation level (acetylated tubulin relative to total tubulin): increase in significant tubulin acetylation level; also recorded: increase in acetylated tubulin

## CN1CCc2c(c3ccccc3n2Cc2ccc(C(=O)NO)cc2)C1 [Tubastatin A]
Tauopathy mouse model
  acetylation of tubulin: increases acetylation of tubulin
  therapeutic effectiveness: shows therapeutic effectiveness
